Measurements: patent publication US20050118658A1, “Use of ERRalpha phosphorylation status as a breast cancer biomarker” (priority 2003, published 2005)

Key:
[1] = tested on: ER-stimulated ERE-regulated transcription in MCF-7 cells; assay: Transient transfection dual-luciferase assay of ERE-regulated transcription in MCF-7 cells; format: cell-based, human; settings: 100 pM E2, 48 h, estrogen-free medium, ER-positive MCF-7 cells
Method: (A) MCF-7 and (B) BT-474 cells were co-transfected in parallel with the ERE(5×)-regulated and TATA dual-luciferase reporter gene sets along with ERRα1, ERRα1L413A/L418A, GRIP1 (glucocorticoid receptor interacting protein 1, SRC2) or empty parental expression plasmids as indicated. Transfected cells were incubated for 48 h in estrogen-free medium supplemented with ethanol, the solvent for the ligands, 100 pM E2, or 100 pM E2 plus 100 nM fulvestrant (ICI 182,780, faslodex) prior to being harvested for dual-luciferase assays. The results shown here are means±standard deviations from data obtained in one representative experiment performed in triplicate.
Plasmids pERE(5x)-ffLuc and pTATA-ffLuc, encoding firefly luciferase, and plasmid pTATA-srLuc, encoding renilla luciferase, were used as matched dual-luciferase reporter sets to assay ERE-regulated versus basal transcription along with an internal control. They were constructed by insertion via HindIII linkers of the nts −31 to +31 region of the herpes simplex virus thymidine kinase (HSV-TK) promoter into pGL3-Basic and phRG-B (Promega, Madison, Wis.), respectively. Plasmid pERE(5x)-ffLuc, containing five tandem copies of the consensus palindromic ERE, was then constructed by insertion into pTATA-fELuc of the oligodeoxynucleotides 5′-tcgag[…]gag[…]ctc[…] GACCTCTgcg[…]gcg[…]a-3′ (SEQ ID NO:1) and 5′-gatct[…]cgc[…]cgc[…] […]

[2] = tested on: phosphorylated MAPK (p-MAPK); assay: Immunoblot analysis of phosphorylated versus total MAPK in BT-474 cells; format: cell-based, human; settings: 48 h, 20 μg/ml trastuzumab, 1 μM gefitinib, 20 μM U0126 or 20 μM LY294002
Method: (§1) BT-474 cells were co-transfected in parallel with the ERE(5x)-regulated and TATA dual-luciferase reporter gene sets along with the indicated expression plasmids. […] In panel (B), the cells were incubated for 48 h in estrogen-free medium supplemented with dimethyl sulfoxide as the drug vehicle control, 20 μM U0126 (MEK inhibitor), or 20 μM LY294002 (PI3K inhibitor) as indicated. After incubation for 48 h, the cells were harvested for dual-luciferase assays. Data were analyzed as described in the legend to FIG. 2. (C) Immunoblot analysis of protein extracts (20 μg per sample) prepared from BT-474 cells treated as in panels A and B above for luciferase activity. The membrane was probed with antibodies that react specifically with ERRα. Reactive proteins were visualized by enhanced chemiluminescence and autoradiography. (D) Immunoblot analysis as in panel C above, only the membrane was probed with antibodies that react specifically with phosphorylated Akt (p-Akt), total Akt, phosphorylated MAPK (p-MAPK) or total MAPK.
(§2) Proteins were extracted in Cell Lysis Buffer (Cell Signaling Technology, Beverly, Mass.) supplemented with Protease Inhibitor Cocktail Set III and Phosphatase Inhibitor Cocktail Set II (Calbiochem). Protein amounts were quantified with Coomassie Protein Assay Reagent (Pierce Biotechnology) with BSA as the standard. […] In FIG. 5D, the membrane was probed sequentially with p44/42 MAPK polyclonal antibody, phospho-specific p44/42 MAPK (Thr202/Tyr204) monoclonal antibody E10, Akt polyclonal antibody, and phospho-specific Akt (Ser473) polyclonal antibody (Cell Signaling Technology). Reacting material was detected using horseradish peroxidase-conjugated secondary antibodies (Jackson ImmunoResearch Laboratories, West Grove, Pa.) together with enhanced chemiluminescence (Amersham Pharmacia) and autoradiography.

[3] = tested on: phosphorylated Akt (p-Akt); assay: Immunoblot analysis of phosphorylated versus total Akt in BT-474 cells; format: cell-based, human; settings: 48 h, 20 μg/ml trastuzumab, 1 μM gefitinib, 20 μM U0126 or 20 μM LY294002
Method: as §1, §2

[4] = tested on: ERRα; assay: Immunoblot analysis of ERRα expression in ERRα-transfected BT-474 cells; format: cell-based, human; settings: BT-474 cells transfected with ERRα, 48 h; 20 μg/ml trastuzumab, 1 μM gefitinib, 20 μM U0126 or 20 μM LY294002
Method: as §1, §2

[5] = tested on: ERRα1-mediated constitutive activation of ERE-regulated transcription in BT-474 cells; assay: Transient transfection dual-luciferase assay of ERRα1-mediated ERE-regulated transcription in BT-474 cells; format: cell-based, human
Method: as §1

[6] = molecular target: T1, GST-ERRα1 1-376 (truncated GST-ERRα1 fusion protein) (UniProt P11474)
T1 sequence: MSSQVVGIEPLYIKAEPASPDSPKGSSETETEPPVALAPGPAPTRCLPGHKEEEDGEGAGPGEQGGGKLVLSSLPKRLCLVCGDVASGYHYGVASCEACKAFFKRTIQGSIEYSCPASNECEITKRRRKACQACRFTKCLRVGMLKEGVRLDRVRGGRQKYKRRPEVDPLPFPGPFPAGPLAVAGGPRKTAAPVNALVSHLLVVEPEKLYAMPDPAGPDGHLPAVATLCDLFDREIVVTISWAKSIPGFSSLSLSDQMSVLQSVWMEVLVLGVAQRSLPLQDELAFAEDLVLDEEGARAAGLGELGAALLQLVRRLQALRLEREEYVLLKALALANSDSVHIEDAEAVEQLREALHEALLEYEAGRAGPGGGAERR

[7] = tested on: PHAS-1 (phosphorylated heat and acid-stable protein regulated by insulin)
[8] = molecular target: T2, GST-ERRα1 1-423 (full-length GST-ERRα1 fusion protein) (UniProt P11474)
T2 sequence: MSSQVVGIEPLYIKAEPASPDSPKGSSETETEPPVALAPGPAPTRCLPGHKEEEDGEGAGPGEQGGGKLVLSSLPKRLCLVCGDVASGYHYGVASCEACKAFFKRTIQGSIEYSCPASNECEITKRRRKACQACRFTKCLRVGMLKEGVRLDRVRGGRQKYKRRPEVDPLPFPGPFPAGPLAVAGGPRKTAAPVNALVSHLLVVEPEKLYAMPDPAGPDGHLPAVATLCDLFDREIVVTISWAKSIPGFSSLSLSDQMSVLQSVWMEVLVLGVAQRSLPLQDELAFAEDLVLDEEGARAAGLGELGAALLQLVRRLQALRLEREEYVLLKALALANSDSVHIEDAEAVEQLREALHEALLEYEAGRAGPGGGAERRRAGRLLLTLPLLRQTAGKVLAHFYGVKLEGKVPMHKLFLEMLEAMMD

[9] = molecular target: T3, GST-ERRα1 1-173 (truncated GST-ERRα1 fusion protein) (UniProt P11474)
T3 sequence: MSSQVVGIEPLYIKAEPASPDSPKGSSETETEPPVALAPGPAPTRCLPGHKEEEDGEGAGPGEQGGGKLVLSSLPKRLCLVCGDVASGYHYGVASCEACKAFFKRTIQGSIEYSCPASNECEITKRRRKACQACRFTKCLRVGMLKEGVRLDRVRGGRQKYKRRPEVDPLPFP

[10] = tested on: GST-β-globin 1-123 fusion protein [GST: P08515]
Sequence of GST-β-globin 1-123 fusion protein [GST: P08515] (P08515 whole entry, looked up, the tested form may be a part): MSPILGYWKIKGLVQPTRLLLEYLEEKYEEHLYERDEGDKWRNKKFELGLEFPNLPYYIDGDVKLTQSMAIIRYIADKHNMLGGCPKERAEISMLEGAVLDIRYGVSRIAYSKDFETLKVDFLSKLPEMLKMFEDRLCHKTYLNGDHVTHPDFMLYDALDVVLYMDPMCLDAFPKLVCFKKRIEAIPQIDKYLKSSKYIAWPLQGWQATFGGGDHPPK

[11] = molecular target: Human ERRα1 containing a C-terminal 6×His tag, expressed and purified from E. coli, P11474

C[C@]12CC[C@@H]3c4ccc(O)cc4CC[C@H]3[C@@H]1CC[C@@H]2O [E2, 17β-estradiol]
induction of ERE-regulated transcription [1]: 19 fold

O=c1cc(N2CCOCC2)oc2c(-c3ccccc3)cccc12 [LY294002, 2-(4-morpholinyl)-8-phenyl-4H-1-benzopyran-4-one]
phosphorylation of MAPK / MEK/MAPK pathway activation (immunoblot) [2]: without affecting MAPK status | phosphorylation of Akt / PI3K/Akt pathway activation (immunoblot) [3]: inhibition of phosphorylation of Akt | ERRα expression (immunoblot) [4]: still expressed

N#CC(=C(/N)Sc1ccccc1N)/C(C#N)=C(\N)Sc1ccccc1N [U0126]
phosphorylation of MAPK / MEK/MAPK pathway activation (immunoblot) [2]: inhibition of phosphorylation of MAPK | phosphorylation of Akt / PI3K/Akt pathway activation (immunoblot) [3]: without affecting Akt status | reduction in ERRα1's activator activity [5]: approximately 50% | ERRα expression (immunoblot) [4]: still expressed

rat p42 MAPK2 (ERK2; Calbiochem) phosphorylated in vitro by a constitutively active MEK1 mutant
in vitro phosphorylation with [γ32P]-ATP, 12% SDS-PAGE and PhosphorImager [6]: MAPK phosphorylated each of the GST-ERRα1 fusion proteins, with more label being incorporated into GST-ERRα11-423 than into GST-ERRα11-376 and GST-ERRα11-173 | in vitro phosphorylation with [γ32P]-ATP, 12% SDS-PAGE and PhosphorImager [7]: activated MAPK efficiently phosphorylated PHAS-1, but not GST-β-globin1-123 | in vitro phosphorylation with [γ32P]-ATP, 12% SDS-PAGE and PhosphorImager [8]: MAPK phosphorylated each of the GST-ERRα1 fusion proteins, with more label being incorporated into GST-ERRα11-423 than into GST-ERRα11-376 and GST-ERRα11-173 | in vitro phosphorylation with [γ32P]-ATP, 12% SDS-PAGE and PhosphorImager [9]: MAPK phosphorylated each of the GST-ERRα1 fusion proteins, with more label being incorporated into GST-ERRα11-423 than into GST-ERRα11-376 and GST-ERRα11-173 | in vitro phosphorylation with [γ32P]-ATP, 12% SDS-PAGE and PhosphorImager [10]: activated MAPK efficiently phosphorylated PHAS-1, but not GST-β-globin1-123

B1: Human Akt2 containing an N-terminal 6×His tag, lacking amino acids 1-117 (Pleckstrin Homology domain), serine 474 mutated to aspartic acid (protein)
chain: HHHHHHDPMDYKCGSPSDSSTTEEMEVAVSKARAKVTMNDFDYLKLLGKGTFGKVILVREKATGRYYAMKILRKEVIIAKDEVAHTVTESRVLQNTRHPFLTALKYAFQTHDRLCFVMEYANGGELFFHLSRERVFTEERARFYGAEIVSALEYLHSRDVVYRDIKLENLMLDKDGHIKITDFGLCKEGISDGATMKTFCGTPEYLAPEVLEDNDYGRAVDWWGLGVVMYEMMCGRLPFYNQDHERLFELILMEEIRFPRTLSPEAKSLLAGLLKKDPKQRLGGGPSDAKEVMEHRFFLSINWQDVVQKKLLPPFKPQVTSEVDTRYFDDEFTAQSITITPPDRYDSLGLLELDQRTHFPQFDYSASIRE
in vitro phosphorylation with [γ-32P]-ATP, SDS-(4-12%) PAGE and autoradiography [11]: Each of the kinases tested was capable of phosphorylating ERRα in vitro

B2: Human Akt1 containing an N-terminal 6×His tag, lacking amino acids 1-117 (Pleckstrin Homology domain), serine 473 mutated to aspartic acid (protein)
chain: HHHHHHMDFRSGSPSDNSGAEEMEVSLAKPKHRVTMNEFEYLKLLGKGTFGKVILVKEKATGRYYAMKILKKEVIVAKDEVAHTLTENRVLQNSRHPFLTALKYSFQTHDRLCFVMEYANGGELFFHLSRERVFSEDRARFYGAEIVSALDYLHSEKNVVYRDLKLENLMLDKDGHIKITDFGLCKEGIKDGATMKTFCGTPEYLAPEVLEDNDYGRAVDWWGLGVVMYEMMCGRLPFYNQDHEKLFELILMEEIRFPRTLGPEAKSLLSGLLKKDPKQRLGGGSEDAKEIMQHRFFAGIVWQHVYEKKLSPPFKPQVTSETDTRYFDEEFTAQMITITPPDQDDSMECVDSERRPHFPQFDYSASGTA
in vitro phosphorylation with [γ-32P]-ATP, SDS-(4-12%) PAGE and autoradiography [11]: Each of the kinases tested was capable of phosphorylating ERRα in vitro

B3: Human MAPK1 containing an N-terminal GST tag, activated with MEK1 (protein)
chain: MAAAAAQGGGGGEPRRTEGVGPGVPGEVEMVKGQPFDVGPRYTQLQYIGEGAYGMVSSAYDHVRKTRVAIKKISPFEHQTYCQRTLREIQILLRFRHENVIGIRDILRASTLEAMRDVYIVQDLMETDLYKLLKSQQLSNDHICYFLYQILRGLKYIHSANVLHRDLKPSNLLINTTCDLKICDFGLARIADPEHDHTGFLTEYVATRWYRAPEIMLNSKGYTKSIDIWSVGCILAEMLSNRPIFPGKHYLDQLNHILGILGSPSQEDLNCIINMKARNYLQSLPSKTKVAWAKLFPKSDSKALDLLDRMLTFNPNKRITVEEALAHPYLEQYYDPTDEPVAEEPFTFAMELDDLPKERLKELIFQETARFQPGVLEAP
in vitro phosphorylation with [γ-32P]-ATP, SDS-(4-12%) PAGE and autoradiography [11]: Each of the kinases tested was capable of phosphorylating ERRα in vitro
